In one assay the test system is angiogenesis. The note with it: in vitro and in vivo assays.
For the next assay, the target named is T1, human oestrogen receptor (Homo sapiens, UniProt P03372).
T1 construct: expressed in transfected cells; host or cells: Saccharomyces cerevisiae (recombinant yeast)
T1 sequence (P03372 1-595): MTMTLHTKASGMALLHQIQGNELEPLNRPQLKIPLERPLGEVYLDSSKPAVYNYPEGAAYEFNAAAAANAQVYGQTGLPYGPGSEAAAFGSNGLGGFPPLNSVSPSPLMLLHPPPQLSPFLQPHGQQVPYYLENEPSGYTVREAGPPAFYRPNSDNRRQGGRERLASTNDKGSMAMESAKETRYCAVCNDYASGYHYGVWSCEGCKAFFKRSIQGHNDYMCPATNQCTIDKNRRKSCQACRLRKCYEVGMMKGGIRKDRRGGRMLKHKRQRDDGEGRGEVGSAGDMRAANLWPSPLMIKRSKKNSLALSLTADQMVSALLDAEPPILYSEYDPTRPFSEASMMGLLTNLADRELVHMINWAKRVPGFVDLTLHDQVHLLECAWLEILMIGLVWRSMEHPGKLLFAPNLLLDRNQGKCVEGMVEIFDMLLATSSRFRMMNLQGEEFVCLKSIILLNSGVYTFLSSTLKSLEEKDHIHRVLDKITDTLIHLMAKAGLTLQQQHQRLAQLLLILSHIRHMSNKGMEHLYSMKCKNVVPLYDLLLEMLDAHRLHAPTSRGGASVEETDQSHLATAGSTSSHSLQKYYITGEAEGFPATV
In words: oestrogenic bioassay. Type of assay: cell-based. The note with it: yeast with human oestrogen receptor; 1, 10, 100, 1000 μM; 3 days; compared to 17 beta-oestradiol standards, FIG. 11. Here is the method:
In an experiment, yeast cells (Saccharomyces cerevisiae) containing a human oestrogen receptor (100 μl) was added to 25 ml growth medium. The growth medium comprised • D-glucose (2.5 ml from 20 g D-glucose in 80 ml water); • L-aspartic acid (0.625 ml from 400 mg in 100 ml water); • vitamin solution (0.250 ml from 8 mg thiamine, 8 mg pyridoxine, 8 mg panthotenic acid, 40 mg inositol and 20 ml biotin solution (2 mg in 100 ml water) in 180 ml water); • L-threonine (0.2 ml from 2.4 g in 100 ml water), copper(II)sulphate (0.0625 ml from 160 mg in 50 ml water); • minimal medium (22.5 ml from 1 l water composed of 13.61 g potassium dihydrogenphosphate, 1.98 g ammonium sulphate, 4.2 g potassium hydroxide, 1 ml iron(III)sulphate (40 mg in 50 ml water), 50 mg L-leucine, 50 mg L-histidine, 50 mg adenine, 20 mg L-arginine hydrochloride, 20 mg L-methionine, 30 mg L-tyrosine, 30 mg L-isoleucine, 30 mg L-lysine hydrochloride, 25 mg L-phenylalanine, 100 mg L-glutamic acid, 150 mg L-valine, 375 mg L-serine); and chlorophenol red beta-D-galactopyranoside (0.250 ml).
17 beta-oestradiol (20 μl aliquots from 0.008 nM to 100 nM, prepared from 10 mg in 10 ml ethanol) and test compounds, in concentrations of 1, 10, 100, 1000 μM, were pipetted into 96-well plates in a sterile flow hood. The solvent was left to evaporate for about 40 min.
The growth medium containing yeast was dispensed to all wells, except blank wells, in aliquots of 100 μl. The plates were incubated at 32° C. in a humidified atmosphere for 3 days, and then read at 540/360 nm by a microtiter plate reader (labsystems Muliskan Ascent Reader, Thermo labsystems, Vantaa, Finland).

The test system of assay [1] is human microvascular endothelial cells (hMVEC). Put plainly: in vitro angiogenesis assay: tube formation in 3-D fibrin matrices. Type of assay: cell-based. Particulars: hMVEC on 3-D fibrin matrix, VEGF-A 25 ng/mL and TNFα 10 ng/mL, 7 days, FIG. 8. Here is the method: Human fibrin matrices were prepared by the addition of 0.1 U/ml thrombin to a commercially obtained (Chromogenix AB, Mölndal, Sweden) mixture of 2 mg/ml fibrinogen (final concentrations), 2 mg/ml Na-citrate, 0.8 mg/ml NaCl, 3 μg/ml plasminogen in M199 medium and 2.5 U/ml factor XIII. 100 μl aliquots of this mixture were added to the wells of 96-well plates. After clotting at room temperature, the fibrin matrices were soaked with M199 supplemented with 10% HS and 10% NBCS for 2 h at 37° C. to inactivate the thrombin. […] Invading cells and the formation of tubular structures of hMVEC in the three-dimensional fibrin matrix were analysed by phase contrast microscopy. The total length of tube-like structures of four microscopic fields (7.3 mm^2/field) were (clockwise) measured using an Olympus CK2 microscope equipped with a monochrome CCD camera (MX5) connected to a computer with Optimas image analysis software, and expressed as mm/cm^2 (Koolwijk et al. J. Cell Biol. 1996, 132:1177-188).
HMVEC were cultured on top of a 3-D fibrin matrix in M199, 10% human serum, 10% NBCS supplemented with VEGF-A (25 ng/mL) and TNFα (10 ng/mL) in the presence or absence of the indicated concentrations (w/v) of the compositions A1, A2, A3, A4, A5, B4, B5 and B6. […] The data are expressed as the mean of two wells indicated by the error bars (FIG. 8 B).

The subject of assay [2] is chorion allantois membrane (CAM). Put plainly: chorion allantois membrane (CAM) assay. It is filed as in vivo, chicken. The note with it: for effect on blood vessel growth in the CAM (in words): Experiment 1.
Experimental: Fertilized chicken eggs are incubated during 4 days at 37° C. Subsequently, the egg shell is opened to disclose the CAM. In order to reduce the pressure on the CAM for improving its manipulating properties, 2 to 3 ml albumen is removed. The opening is closed using cellophane tape and the eggs are further incubated until day 9 for application of the liquid test compounds using different concentrations. Dulbecco's modified Eagle medium (DMEM) was used as a negative control, whereas Vascular Endothelial Growth factor (VEGF) was used as a positive control (stimulator of angiogenesis). A total polar extract from refined, de-oiled jojoba flour, dimethylsimmondsin purified from this extract and a commercially known angiogenesis inhibitor (Tangeritin) were compared in their angiogenesis-inhibiting activity towards VEGF stimulated angiogenesis in the CAM's. Each of these solubilized test compositions was pipetted on a sterile plastic disc (10 mm diameter) and dried under sterile conditions.
Each disc was treated with cortisone acetate (100 μg/50 μl) in order to avoid inflammatory reactions. After drying, the discs were placed on the CAM with the charged side facing the CAM. The control disc (DMEM) was placed at 1 cm of the disc containing the test component. The opening was sealed with cellophane tape and the eggs were further incubated. At day 11, the tape and discs were removed and 10% buffered formaline was sprayed over the CAM. Eggs were allowed to dry for 2 to 4 h at room T°. Then, the CAM was cut out of the egg and mounted on a glass slide. The vascular density index is measured according to Harris-Hooker et al. (1983; J. Cell. Physiol. 114:302-310); all micro vessels that cross 3 concentric circles with a diameter of 6, 8 and 10 mm were counted, as illustrated on FIG. 2.
The angiogenetic Index (AI) is expressed as {(t/c)×100}−100, whereby t=total number of crossing vessels where the disc containing the test component was located, and c=total number of crossing vessels where the control disc was located. […]

Read-outs that look alike come from different tables or passages of the source.

For “4,5-dimethylsimmondsin ferulate (cis/trans) [A5]”, the “angiogenesis-inhibiting activity (overall conclusion)” value in the assay on angiogenesis is listed as “higher angiogenesis-inhibiting activity than the unsubstituted dimethylsimmondsin”; with angiogenesis (listed as dimethylsimmondsin ferulates), “significant angiogenesis-inhibiting activity, which is higher than the activity of unsubstituted dimethylsimmondsin”.
Regarding `COc1cc(C=CC(=O)OC2C(OC3CC(OC)C(OC)C(O)C3=CC#N)OC(CO)C(O)C2O)ccc1O` (stereo not shown) [E simmondsin-2′-ferulate], the oestrogen-like activity entry on human oestrogen receptor is listed as “no significant oestrogen-like activity”.
For `COC1CC(OC2OC(CO)C(O)C(O)C2O)C(=CC#N)C(O)C1O` (stereo not shown) [4-desmethylsimmondsin], at human oestrogen receptor, the oestrogen-like activity entry is “no significant oestrogen-like activity”.
In the case of `N#CC=C1CC(O)C(O)C(O)C1O[C@@H]1O[C@H](CO)[C@@H](O)[C@H](O)[C@H]1O` (stereo partly shown) [B5, 4,5-didesmethylsimmondsin], the oestrogen-like activity result on human oestrogen receptor is “no significant oestrogen-like activity”. Further, the “inhibition of VEGF-induced in vitro tube formation” value in assay [1] is recorded as “highest biological activity”.
`COc1cc(/C=C\C(=O)O[C@@H]2[C@@H](O[C@@H]3C[C@H](OC)[C@H](OC)[C@@H](O)/C3=C/C#N)O[C@@H](CO)[C@H](O)[C@H]2O)ccc1O` [Z simmondsin-2′-ferulate]: the oestrogen-like activity result at human oestrogen receptor is reported as “no significant oestrogen-like activity”.
Take 4,5-dimethylsimmondsin [A4]: the oestrogen-like activity entry at human oestrogen receptor was “no significant oestrogen-like activity”. The “effect on blood vessel growth in the CAM (in words)” value in assay [2] is listed as “significant angiogenesis inhibition comparable with tangeritin”. Further, in assay [2] (Experiments 2 and 3, A4 in the same concentration as the total polar extract), the “angiogenesis-inhibiting activity in the CAM (in words)” value is listed as “lower than the total polar extract but nevertheless still significant”.
For desmethylsimmondsin, the “inhibition of VEGF-induced in vitro tube formation” value in assay [1] was “highest biological activity”.
For `CO[C@H]1[C@@H](O)C[C@@H](O[C@@H]2O[C@H](CO)[C@@H](O)[C@H](O)[C@H]2O)/C(=C\C#N)[C@@H]1O` [5-desmethylsimmondsin], the oestrogen-like activity entry at human oestrogen receptor was “no significant oestrogen-like activity”.
VEGF [reference compound]: the “effect on blood vessel growth in the CAM (in words)” value in assay [2] was “significant blood vessel growth compared with the negative control group (DMEM)”.

For the origin of these results see patent US7387999B2, “Simmondsin for use as angiogenesis inhibitor” (priority 2002, dated 2008).
